Laboratory results: ChEMBL document CHEMBL1139200, “Structure-activity relationships, and drug metabolism and pharmacokinetic properties for indazole piperazine and indazole piperidine inhibitors of ROCK-II” (Bioorg Med Chem Lett, 2007)

Tests used:
[1] = target: Rho-associated protein kinase 2 (Homo sapiens, UniProt O75116); assay: Inhibition of ROCK2
[2] = Tmax in rat at 2 mg/kg, po; assay type: ADME, organism-based; parameters: dose 2 mg/kg, route oral; settings: in vivo
Homo sapiens [3] = species: Homo sapiens; assay: Selectivity for ROCK2 over MRCK
[4] = Cmax in rat at 2 mg/kg, po; assay type: ADME, organism-based; parameters: dose 2 mg/kg, route oral; settings: in vivo
[5] = Half life in rat at 1 mg/kg, iv; assay type: ADME, organism-based; parameters: dose 1 mg/kg, route intravenous; settings: in vivo
[6] = Volume of distribution in rat at 1 mg/kg, iv; assay type: ADME, organism-based; parameters: dose 1 mg/kg, route intravenous; settings: in vivo
[7] = Oral bioavailability in rat at 2 mg/kg; assay type: ADME, organism-based; settings: in vivo
[8] = AUC (0 to infinity) in rat at 1 mg/kg, iv; assay type: ADME, organism-based; parameters: time infinity, dose 1 mg/kg, route intravenous; settings: plasma
Cytochrome P450 3A4 = Cytochrome P450 3A4 (Homo sapiens, UniProt P08684)
Sequence of Cytochrome P450 3A4 (P08684 whole entry): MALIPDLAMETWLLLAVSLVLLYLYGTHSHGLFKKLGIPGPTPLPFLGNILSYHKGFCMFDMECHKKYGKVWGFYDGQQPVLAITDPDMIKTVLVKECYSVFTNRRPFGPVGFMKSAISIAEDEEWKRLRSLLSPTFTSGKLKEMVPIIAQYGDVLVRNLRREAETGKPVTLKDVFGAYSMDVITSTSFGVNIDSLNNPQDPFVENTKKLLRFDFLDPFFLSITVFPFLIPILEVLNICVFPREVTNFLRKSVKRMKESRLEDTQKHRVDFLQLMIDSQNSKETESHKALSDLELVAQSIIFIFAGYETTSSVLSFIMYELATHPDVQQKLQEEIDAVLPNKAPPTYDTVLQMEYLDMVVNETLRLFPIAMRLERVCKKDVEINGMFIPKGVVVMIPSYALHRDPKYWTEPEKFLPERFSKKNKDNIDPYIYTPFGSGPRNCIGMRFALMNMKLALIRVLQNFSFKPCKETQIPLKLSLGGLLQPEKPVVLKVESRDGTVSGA

Homo sapiens [9] = species: Homo sapiens; assay: Selectivity for ROCK2 over PKA
[10] = Inhibition of MRCK; parameters: species or system Homo sapiens
[11] = AUC (0 to infinity) in rat at 2 mg/kg, po; assay type: ADME, organism-based; parameters: time infinity, dose 2 mg/kg, route oral; settings: plasma
[12] = Metabolic stability in human liver microsomes
N2a = assay: Inhibition of LPA-induced neurite retraction in mouse N2A cells; assay type: functional, cell-based
[13] = Inhibition of PKA; parameters: species or system Homo sapiens
[14] = Clearance in rat at 1 mg/kg, iv; assay type: ADME, organism-based; parameters: dose 1 mg/kg, route intravenous; settings: in vivo

Sequence of Rho-associated protein kinase 2 (O75116 whole entry): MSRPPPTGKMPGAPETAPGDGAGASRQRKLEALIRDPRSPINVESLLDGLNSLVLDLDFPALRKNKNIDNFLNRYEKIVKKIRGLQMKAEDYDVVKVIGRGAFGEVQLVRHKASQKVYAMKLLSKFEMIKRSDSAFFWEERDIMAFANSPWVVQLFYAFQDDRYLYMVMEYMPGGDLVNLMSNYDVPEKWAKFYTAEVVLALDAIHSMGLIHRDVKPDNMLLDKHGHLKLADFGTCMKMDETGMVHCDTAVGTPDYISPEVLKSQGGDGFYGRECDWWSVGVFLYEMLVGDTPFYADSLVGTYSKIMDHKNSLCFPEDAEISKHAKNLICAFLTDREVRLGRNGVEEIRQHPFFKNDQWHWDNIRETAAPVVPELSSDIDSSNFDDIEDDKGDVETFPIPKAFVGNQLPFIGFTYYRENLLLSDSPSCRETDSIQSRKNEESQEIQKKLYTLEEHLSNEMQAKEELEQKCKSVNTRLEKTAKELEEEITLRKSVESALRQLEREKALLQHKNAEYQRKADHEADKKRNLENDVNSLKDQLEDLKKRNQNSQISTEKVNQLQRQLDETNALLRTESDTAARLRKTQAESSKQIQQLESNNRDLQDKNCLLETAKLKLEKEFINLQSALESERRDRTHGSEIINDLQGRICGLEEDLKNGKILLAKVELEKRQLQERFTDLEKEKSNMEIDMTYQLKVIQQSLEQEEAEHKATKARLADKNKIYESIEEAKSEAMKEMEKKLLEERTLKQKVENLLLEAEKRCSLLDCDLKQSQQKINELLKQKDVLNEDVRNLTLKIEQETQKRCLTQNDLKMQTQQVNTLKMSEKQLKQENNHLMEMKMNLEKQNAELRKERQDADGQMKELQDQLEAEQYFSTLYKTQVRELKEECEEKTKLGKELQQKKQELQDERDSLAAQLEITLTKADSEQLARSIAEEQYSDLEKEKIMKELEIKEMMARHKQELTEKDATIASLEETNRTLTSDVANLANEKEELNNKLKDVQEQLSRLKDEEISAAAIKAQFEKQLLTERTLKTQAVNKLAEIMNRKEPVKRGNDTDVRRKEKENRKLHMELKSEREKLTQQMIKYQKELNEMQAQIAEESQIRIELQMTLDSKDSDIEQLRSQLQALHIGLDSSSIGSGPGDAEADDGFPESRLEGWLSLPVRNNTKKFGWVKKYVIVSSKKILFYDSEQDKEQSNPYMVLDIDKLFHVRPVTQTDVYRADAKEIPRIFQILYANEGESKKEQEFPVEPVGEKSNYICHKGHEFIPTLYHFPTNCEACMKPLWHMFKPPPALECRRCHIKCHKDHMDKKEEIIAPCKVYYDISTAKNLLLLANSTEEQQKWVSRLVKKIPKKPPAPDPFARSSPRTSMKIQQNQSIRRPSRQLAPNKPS

**Q.** With `NC(C(=O)N1CCN(c2ccc3[nH]ncc3c2)CC1)c1ccc(Br)cc1` (configuration not stated) as the compound, how does the IC50 [1] read?
**A.** 90 nM

**Q.** And the Tmax [2]?
**A.** 24 min

**Q.** And the Ratio IC50 (Homo sapiens [3])?
**A.** > 222

**Q.** And the Cmax [4]?
**A.** 400 nM

**Q.** What about the half-life [5] of the same compound?
**A.** 36 min

**Q.** And the Vd [6]?
**A.** 2.7 L/kg

**Q.** What about the bioavailability [7] of the same compound?
**A.** 8%

**Q.** And the AUC(0-inf) [8]?
**A.** 0.54 µM·h

**Q.** And the IC50 (Cytochrome P450 3A4)?
**A.** 410 nM

**Q.** What about the Ratio IC50 (Homo sapiens [9]) of the same compound?
**A.** 5

**Q.** And the IC50 [10]?
**A.** > 20000 nM

**Q.** And the AUC(0-inf) [11]?
**A.** 0.09 µM·h

**Q.** What about the half-life ([12]; liver microsomes) of the same compound?
**A.** 9.8 min

**Q.** What about the IC50 (N2a) of the same compound?
**A.** > 15000 nM

**Q.** And the IC50 [13]?
**A.** 450 nM

**Q.** And the clearance [14]?
**A.** 75.5 mL/min/kg

**Q.** Which results are given for `O=C(C(O)c1ccc(Br)cc1)N1CCN(c2ccc3[nH]ncc3c2)CC1` (configuration not stated)?
**A.** IC50 [1]: 100 nM; Tmax [2]: 24 min; Cmax [4]: 100 nM; half-life [5]: 42 min; Vd [6]: 3.7 L/kg; bioavailability [7]: 28%; AUC(0-inf) [8]: 0.38 µM·h; IC50 [10]: > 20000 nM; AUC(0-inf) [11]: 0.21 µM·h; IC50 (N2a): 2400 nM; IC50 [13]: 2700 nM; clearance [14]: 109 mL/min/kg

**Q.** With `NC(C(=O)N1CCN(c2ccc3[nH]ncc3c2)CC1)c1ccc(Cl)cc1` (configuration not stated) as the compound, how does the IC50 [1] read?
**A.** 190 nM

**Q.** What about the IC50 (Cytochrome P450 3A4) of the same compound?
**A.** 530 nM

**Q.** With `N[C@H](C(=O)N1CCC(Nc2ccc3[nH]ncc3c2)CC1)c1ccccc1` as the compound, how does the IC50 [1] read?
**A.** 830 nM

**Q.** For `N[C@@H](C(=O)N1CCN(c2ccc3[nH]ncc3c2)CC1)c1ccccc1`, which IC50 [1] is on record?
**A.** 1300 nM

**Q.** What about the IC50 (Cytochrome P450 3A4) of the same compound?
**A.** 470 nM

**Q.** With `C[C@H](O)C(=O)N1CCC(Nc2ccc3[nH]ncc3c2)CC1` as the compound, how does the IC50 [1] read?
**A.** 10000 nM

**Q.** And the IC50 (Cytochrome P450 3A4)?
**A.** 1000 nM

**Q.** Which results are given for `CC(C)[C@@H](O)C(=O)N1CCN(c2ccc3[nH]ncc3c2)CC1`?
**A.** IC50 [1]: 3900 nM; IC50 (Cytochrome P450 3A4): 10000 nM

**Q.** Which IC50 [1] does the source give for `O=C([C@@H](O)c1cccc(Cl)c1)N1CCC(Nc2ccc3[nH]ncc3c2)CC1` here?
**A.** 350 nM

**Q.** What about the IC50 (Cytochrome P450 3A4) of the same compound?
**A.** 2000 nM

**Q.** With `O=C([C@H](O)c1ccccc1Cl)N1CCN(c2ccc3[nH]ncc3c2)CC1` as the compound, how does the IC50 [1] read?
**A.** 1200 nM

**Q.** And the IC50 (Cytochrome P450 3A4)?
**A.** 8000 nM

**Q.** Which results are given for `NC(C(=O)N1CCC(Nc2ccc3[nH]ncc3c2)CC1)c1cccc(Cl)c1` (configuration not stated)?
**A.** IC50 [1]: 150 nM; IC50 (Cytochrome P450 3A4): 170 nM

**Q.** With `NC(C(=O)N1CCC(Nc2ccc3[nH]ncc3c2)CC1)c1ccc(Br)cc1` (configuration not stated) as the compound, how does the IC50 [1] read?
**A.** 13 nM

**Q.** And the Tmax [2]?
**A.** 42 min

**Q.** And the Ratio IC50 (Homo sapiens [3])?
**A.** 554

**Q.** And the Cmax [4]?
**A.** 100 nM

**Q.** What about the half-life [5] of the same compound?
**A.** 36 min

**Q.** What about the Vd [6] of the same compound?
**A.** 1.7 L/kg

**Q.** What about the bioavailability [7] of the same compound?
**A.** 8%

**Q.** And the AUC(0-inf) [8]?
**A.** 0.95 µM·h

**Q.** What about the IC50 (Cytochrome P450 3A4) of the same compound?
**A.** 490 nM

**Q.** And the Ratio IC50 (Homo sapiens [9])?
**A.** 72

**Q.** What about the IC50 [10] of the same compound?
**A.** 7200 nM

**Q.** And the AUC(0-inf) [11]?
**A.** 0.15 µM·h

**Q.** What about the half-life ([12]; microsomes) of the same compound?
**A.** 10.8 min

**Q.** What about the IC50 (N2a) of the same compound?
**A.** 5700 nM

**Q.** And the IC50 [13]?
**A.** 940 nM

**Q.** And the clearance [14]?
**A.** 41.4 mL/min/kg

**Q.** What does the source list for `N[C@@H](Cc1ccccc1)C(=O)N1CCC(Nc2ccc3[nH]ncc3c2)CC1`?
**A.** IC50 [1]: 470 nM; IC50 (Cytochrome P450 3A4): 1000 nM

**Q.** With `O=C([C@@H](O)c1ccccc1Cl)N1CCC(Nc2ccc3[nH]ncc3c2)CC1` as the compound, how does the IC50 [1] read?
**A.** 1700 nM

**Q.** And the IC50 (Cytochrome P450 3A4)?
**A.** 4000 nM

**Q.** For `O=C([C@H](O)c1cccc(Cl)c1)N1CCN(c2ccc3[nH]ncc3c2)CC1`, which IC50 [1] is on record?
**A.** 1000 nM

**Q.** What about the IC50 (Cytochrome P450 3A4) of the same compound?
**A.** 3500 nM

**Q.** For `O=C([C@@H]1Cc2ccccc2CN1)N1CCN(c2ccc3[nH]ncc3c2)CC1`, which IC50 [1] is on record?
**A.** 5300 nM

**Q.** What about the IC50 (Cytochrome P450 3A4) of the same compound?
**A.** 10000 nM

**Q.** With `O=C(C(O)c1ccc(Cl)cc1)N1CCN(c2ccc3[nH]ncc3c2)CC1` (configuration not stated) as the compound, how does the IC50 [1] read?
**A.** 190 nM

**Q.** And the IC50 (Cytochrome P450 3A4)?
**A.** 3000 nM

**Q.** Which IC50 [1] does the source give for `O=C([C@H](O)c1ccccc1)N1CCN(c2ccc3[nH]ncc3c2)CC1` here?
**A.** 800 nM

**Q.** And the IC50 (Cytochrome P450 3A4)?
**A.** 10000 nM

**Q.** Which results are given for `O=C([C@H](O)c1ccccc1)N1CCC(Nc2ccc3[nH]ncc3c2)CC1`?
**A.** IC50 [1]: 770 nM; IC50 (Cytochrome P450 3A4): 1000 nM

**Q.** Which results are given for `N[C@H](Cc1ccccc1)C(=O)N1CCN(c2ccc3[nH]ncc3c2)CC1`?
**A.** IC50 [1]: 380 nM; IC50 (Cytochrome P450 3A4): 7000 nM

**Q.** Which IC50 [1] does the source give for `C[C@H](N)C(=O)N1CCC(Nc2ccc3[nH]ncc3c2)CC1` here?
**A.** 6000 nM

**Q.** And the IC50 (Cytochrome P450 3A4)?
**A.** > 10000 nM

**Q.** What does the source list for `C[C@@H](N)C(=O)N1CCN(c2ccc3[nH]ncc3c2)CC1`?
**A.** IC50 [1]: > 10000 nM; IC50 (Cytochrome P450 3A4): 10000 nM

**Q.** Which IC50 [1] does the source give for `O=C(C(O)c1ccc(Br)cc1)N1CCC(Nc2ccc3[nH]ncc3c2)CC1` (configuration not stated) here?
**A.** 80 nM

**Q.** And the Tmax [2]?
**A.** 24 min

**Q.** And the Ratio IC50 (Homo sapiens [3])?
**A.** > 250

**Q.** And the Cmax [4]?
**A.** 200 nM

**Q.** And the half-life [5]?
**A.** 66 min

**Q.** What about the Vd [6] of the same compound?
**A.** 1.9 L/kg

**Q.** And the bioavailability [7]?
**A.** 26%

**Q.** What about the AUC(0-inf) [8] of the same compound?
**A.** 1.35 µM·h

**Q.** What about the IC50 (Cytochrome P450 3A4) of the same compound?
**A.** 3500 nM

**Q.** And the Ratio IC50 (Homo sapiens [9])?
**A.** 53

**Q.** And the IC50 [10]?
**A.** > 20000 nM

**Q.** And the AUC(0-inf) [11]?
**A.** 0.71 µM·h

**Q.** What about the half-life ([12]; liver microsomes) of the same compound?
**A.** 36.3 min

**Q.** What about the IC50 (N2a) of the same compound?
**A.** 3500 nM

**Q.** And the IC50 [13]?
**A.** 4200 nM

**Q.** What about the clearance [14] of the same compound?
**A.** 30.3 mL/min/kg

**Q.** For `NC(C(=O)N1CCN(c2ccc3[nH]ncc3c2)CC1)c1cccc(Cl)c1` (configuration not stated), which IC50 [1] is on record?
**A.** 760 nM

**Q.** And the IC50 (Cytochrome P450 3A4)?
**A.** 250 nM
